Experimental data from the supplement of paper PMC12463676, “Small-molecule dissolution of stress granules by redox modulation benefits ALS models” (Nature Chemical Biology, 2025).

Tests used:
[1] = compound: NC(=O)CCCCC1CCSS1 [lipoamide]; test: thermal stability z-score vs DMSO; higher = more thermally stabilized by treatment; conditions: HeLa, lipoamide concentration 100 µM
Experimental: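 Cellular thermal proteome profiling in HeLa cells. Cells were treated with 100 µM lipoamide for 1 h, with or without 1 mM arsenate for a further 1 h, then heated to ten temperatures (37-66.3 °C), and soluble protein was quantified by TMT mass spectrometry relative to 0.1% DMSO controls. The thermal stability score (sum of log2 fold changes minus the abundance score) was transformed to a z-score; mean of n = 3 experiments.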

[2] = compound: O=[As]([O-])(O)O.[K+] [potassium arsenate]; test: as above; conditions: HeLa; arsenate concentration 1 mM
Experimental: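 Cellular thermal proteome profiling in HeLa cells treated with 1 mM arsenate for 1 h (DMSO pretreatment), heated to ten temperatures (37-66.3 °C). Soluble protein was quantified by TMT mass spectrometry relative to DMSO controls; the thermal stability score was transformed to a z-score; mean of n = 3 experiments.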

[3] = arsenate co-treatment: 1 mM arsenate 1 h
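Further: each temperature applied for 3 min, abundance score taken as mean log2 fold change at the two lowest temperatures, z-score obtained by mean subtraction and division by SD.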

Sequence of UniProt Q6DKJ4 (Q6DKJ4 whole entry): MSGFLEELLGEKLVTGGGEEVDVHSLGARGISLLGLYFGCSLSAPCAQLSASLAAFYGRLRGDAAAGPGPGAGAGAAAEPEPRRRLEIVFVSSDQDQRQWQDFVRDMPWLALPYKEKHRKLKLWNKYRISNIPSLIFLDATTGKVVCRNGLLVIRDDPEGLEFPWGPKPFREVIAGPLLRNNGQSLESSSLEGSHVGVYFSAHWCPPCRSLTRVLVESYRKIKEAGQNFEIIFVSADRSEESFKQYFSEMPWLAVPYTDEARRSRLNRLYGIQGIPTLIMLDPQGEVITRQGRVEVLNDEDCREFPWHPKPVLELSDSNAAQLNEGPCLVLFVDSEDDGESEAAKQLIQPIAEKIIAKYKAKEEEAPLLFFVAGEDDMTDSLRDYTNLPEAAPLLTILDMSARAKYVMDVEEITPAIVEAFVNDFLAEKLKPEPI
Sequence of UniProt P49591 (P49591 whole entry, looked up): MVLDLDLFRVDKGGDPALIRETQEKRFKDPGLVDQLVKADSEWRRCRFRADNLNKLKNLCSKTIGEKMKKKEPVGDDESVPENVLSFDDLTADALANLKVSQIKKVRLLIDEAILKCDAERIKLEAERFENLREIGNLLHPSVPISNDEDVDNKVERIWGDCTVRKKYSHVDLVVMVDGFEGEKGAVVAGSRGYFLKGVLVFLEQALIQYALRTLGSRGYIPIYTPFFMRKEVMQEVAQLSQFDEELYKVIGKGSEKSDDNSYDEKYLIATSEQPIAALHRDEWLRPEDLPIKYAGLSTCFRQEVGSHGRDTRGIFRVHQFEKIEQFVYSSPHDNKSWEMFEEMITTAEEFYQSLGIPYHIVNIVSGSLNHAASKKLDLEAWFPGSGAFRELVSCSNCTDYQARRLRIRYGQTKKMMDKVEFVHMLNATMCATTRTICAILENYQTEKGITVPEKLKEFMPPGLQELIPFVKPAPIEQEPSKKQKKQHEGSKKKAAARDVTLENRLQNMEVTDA
Sequence of UniProt Q9Y6R0 (Q9Y6R0 whole entry): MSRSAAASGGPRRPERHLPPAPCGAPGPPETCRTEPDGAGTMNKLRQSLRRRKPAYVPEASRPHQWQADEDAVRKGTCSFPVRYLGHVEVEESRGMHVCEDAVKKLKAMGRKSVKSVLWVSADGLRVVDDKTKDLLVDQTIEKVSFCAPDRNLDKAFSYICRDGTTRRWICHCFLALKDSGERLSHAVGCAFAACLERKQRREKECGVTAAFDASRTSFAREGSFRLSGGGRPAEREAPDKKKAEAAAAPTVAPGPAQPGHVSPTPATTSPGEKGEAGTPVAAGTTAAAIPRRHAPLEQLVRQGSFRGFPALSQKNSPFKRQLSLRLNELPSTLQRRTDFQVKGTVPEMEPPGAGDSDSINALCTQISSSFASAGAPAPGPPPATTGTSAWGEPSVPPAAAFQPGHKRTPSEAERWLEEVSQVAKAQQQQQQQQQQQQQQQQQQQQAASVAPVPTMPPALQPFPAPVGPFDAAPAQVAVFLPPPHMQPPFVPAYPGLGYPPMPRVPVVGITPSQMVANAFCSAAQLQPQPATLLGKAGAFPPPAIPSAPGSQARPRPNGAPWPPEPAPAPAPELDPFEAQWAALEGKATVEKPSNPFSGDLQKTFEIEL
Sequence of UniProt Q9NRZ9 (Q9NRZ9 whole entry): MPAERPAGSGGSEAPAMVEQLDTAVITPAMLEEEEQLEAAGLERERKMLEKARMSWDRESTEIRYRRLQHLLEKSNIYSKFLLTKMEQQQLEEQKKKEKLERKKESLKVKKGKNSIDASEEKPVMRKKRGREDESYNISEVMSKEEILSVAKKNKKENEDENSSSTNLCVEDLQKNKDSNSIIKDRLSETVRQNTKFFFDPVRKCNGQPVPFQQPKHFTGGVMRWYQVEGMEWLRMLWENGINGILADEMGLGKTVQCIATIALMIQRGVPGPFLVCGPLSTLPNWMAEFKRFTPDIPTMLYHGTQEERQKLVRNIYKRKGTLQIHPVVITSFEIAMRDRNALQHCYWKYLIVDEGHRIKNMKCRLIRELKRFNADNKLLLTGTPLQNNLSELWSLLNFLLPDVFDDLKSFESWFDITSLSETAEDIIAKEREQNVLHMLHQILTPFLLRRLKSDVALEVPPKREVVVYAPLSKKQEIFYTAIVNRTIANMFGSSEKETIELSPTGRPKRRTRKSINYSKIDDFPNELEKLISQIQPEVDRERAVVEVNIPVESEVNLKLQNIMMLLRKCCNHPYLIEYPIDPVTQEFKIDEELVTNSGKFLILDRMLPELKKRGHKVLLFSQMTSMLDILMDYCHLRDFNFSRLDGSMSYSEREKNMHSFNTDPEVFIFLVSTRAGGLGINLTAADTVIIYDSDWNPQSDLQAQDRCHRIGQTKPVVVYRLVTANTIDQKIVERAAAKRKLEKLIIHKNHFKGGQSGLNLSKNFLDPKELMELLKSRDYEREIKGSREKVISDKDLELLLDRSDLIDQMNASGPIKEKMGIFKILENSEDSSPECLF
Sequence of UniProt A6NKD9 (A6NKD9 whole entry): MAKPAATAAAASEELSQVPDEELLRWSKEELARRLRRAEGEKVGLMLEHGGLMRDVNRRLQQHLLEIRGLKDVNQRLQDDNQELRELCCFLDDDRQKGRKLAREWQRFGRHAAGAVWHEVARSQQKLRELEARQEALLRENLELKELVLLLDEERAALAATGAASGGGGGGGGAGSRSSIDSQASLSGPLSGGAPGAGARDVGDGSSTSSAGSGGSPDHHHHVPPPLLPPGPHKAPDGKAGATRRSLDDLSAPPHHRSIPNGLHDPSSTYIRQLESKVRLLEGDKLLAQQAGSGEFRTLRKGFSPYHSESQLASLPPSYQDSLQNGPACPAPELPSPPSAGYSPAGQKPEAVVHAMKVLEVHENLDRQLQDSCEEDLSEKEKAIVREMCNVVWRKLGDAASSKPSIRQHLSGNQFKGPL
Sequence of UniProt O96013 (O96013 whole entry, looked up): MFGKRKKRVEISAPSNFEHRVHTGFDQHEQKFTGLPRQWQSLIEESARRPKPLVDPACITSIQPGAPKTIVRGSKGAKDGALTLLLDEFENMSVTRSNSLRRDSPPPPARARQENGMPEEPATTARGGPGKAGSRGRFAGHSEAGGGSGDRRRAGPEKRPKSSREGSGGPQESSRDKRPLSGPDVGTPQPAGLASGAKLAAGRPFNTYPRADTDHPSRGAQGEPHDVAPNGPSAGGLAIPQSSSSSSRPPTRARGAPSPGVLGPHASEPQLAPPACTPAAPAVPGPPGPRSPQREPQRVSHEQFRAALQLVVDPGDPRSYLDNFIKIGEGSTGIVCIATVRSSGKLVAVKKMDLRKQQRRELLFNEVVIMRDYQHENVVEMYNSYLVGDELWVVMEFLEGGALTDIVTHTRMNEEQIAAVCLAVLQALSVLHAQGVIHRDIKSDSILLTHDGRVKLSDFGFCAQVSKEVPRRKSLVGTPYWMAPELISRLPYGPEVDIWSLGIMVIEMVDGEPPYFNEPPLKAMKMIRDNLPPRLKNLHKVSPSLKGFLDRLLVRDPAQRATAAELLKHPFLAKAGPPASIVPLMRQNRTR
Sequence of UniProt Q15059 (Q15059 whole entry, looked up): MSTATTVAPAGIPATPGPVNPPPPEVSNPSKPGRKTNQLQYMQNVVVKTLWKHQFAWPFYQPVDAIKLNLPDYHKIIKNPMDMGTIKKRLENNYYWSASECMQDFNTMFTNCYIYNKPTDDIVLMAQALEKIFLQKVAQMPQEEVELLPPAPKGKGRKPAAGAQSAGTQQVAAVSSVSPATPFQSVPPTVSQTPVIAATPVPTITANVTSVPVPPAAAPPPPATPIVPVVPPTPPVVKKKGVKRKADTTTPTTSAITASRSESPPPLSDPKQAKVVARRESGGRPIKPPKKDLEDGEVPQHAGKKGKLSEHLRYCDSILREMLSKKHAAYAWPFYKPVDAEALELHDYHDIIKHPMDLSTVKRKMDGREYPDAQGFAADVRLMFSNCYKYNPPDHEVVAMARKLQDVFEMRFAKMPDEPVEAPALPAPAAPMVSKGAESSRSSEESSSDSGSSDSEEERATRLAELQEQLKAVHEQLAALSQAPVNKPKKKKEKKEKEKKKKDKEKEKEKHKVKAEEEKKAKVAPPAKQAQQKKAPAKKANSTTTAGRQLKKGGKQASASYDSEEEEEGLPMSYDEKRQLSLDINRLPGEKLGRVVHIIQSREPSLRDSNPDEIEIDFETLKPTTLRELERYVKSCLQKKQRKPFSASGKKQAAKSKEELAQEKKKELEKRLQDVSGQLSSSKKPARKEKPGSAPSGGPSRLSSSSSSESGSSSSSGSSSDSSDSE
Sequence of UniProt Q08752 (Q08752 whole entry): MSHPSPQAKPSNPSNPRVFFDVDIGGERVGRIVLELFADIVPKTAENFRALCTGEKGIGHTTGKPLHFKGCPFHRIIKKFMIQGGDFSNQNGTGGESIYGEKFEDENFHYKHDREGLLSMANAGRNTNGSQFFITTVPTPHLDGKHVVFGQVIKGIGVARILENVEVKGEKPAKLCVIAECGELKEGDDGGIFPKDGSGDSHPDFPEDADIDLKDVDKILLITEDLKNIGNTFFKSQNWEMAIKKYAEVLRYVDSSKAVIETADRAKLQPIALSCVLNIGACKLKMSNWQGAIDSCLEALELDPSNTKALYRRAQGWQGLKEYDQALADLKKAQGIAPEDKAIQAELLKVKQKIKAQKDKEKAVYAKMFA
Sequence of UniProt P49773 (P49773 whole entry): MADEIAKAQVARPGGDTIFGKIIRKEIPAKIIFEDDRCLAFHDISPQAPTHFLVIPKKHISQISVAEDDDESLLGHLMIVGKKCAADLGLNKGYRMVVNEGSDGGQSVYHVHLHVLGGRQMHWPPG
Sequence of UniProt P43897 (P43897 whole entry): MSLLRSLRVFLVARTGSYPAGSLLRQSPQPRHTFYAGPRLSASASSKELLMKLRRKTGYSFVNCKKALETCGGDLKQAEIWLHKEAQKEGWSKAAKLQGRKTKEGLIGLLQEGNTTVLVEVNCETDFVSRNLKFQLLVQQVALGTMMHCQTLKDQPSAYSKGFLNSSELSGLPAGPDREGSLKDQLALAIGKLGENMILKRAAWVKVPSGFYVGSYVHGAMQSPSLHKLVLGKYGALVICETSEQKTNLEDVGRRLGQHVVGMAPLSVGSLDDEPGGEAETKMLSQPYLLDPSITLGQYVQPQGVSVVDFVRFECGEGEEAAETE

Target	thermal stability z-score [1, 3]	thermal stability z-score ([1]; arsenate co-treatment: none)	thermal stability z-score [2]
HYPK (UniProt Q9NX55)	0.716	0.592	-0.114
SERPINB6 (UniProt P35237)	-0.206	-0.157	-1.01
HINT1 (UniProt P49773)	1.13	0.532	-0.189
PCYT2 (UniProt Q99447)	0.0344	-0.0669	-0.938
TBC1D15 (UniProt Q8TC07)	-0.559	-0.646	-0.276
FIGNL1 (UniProt Q6PIW4)	-0.113	-0.0699	-1
PGAM5 (UniProt Q96HS1)	0.0875	0.709	0.701
TXNDC15 (UniProt Q96J42)	-1.92	-0.609	1.16
PAK4 (UniProt O96013)	-0.224	-0.347	-0.347
PRRC1 (UniProt Q96M27)	0.101	0.135	-0.142
TRIM3 (UniProt O75382)	0.012	0.061	-0.044
PAM (UniProt P19021)	-1.15	-1.32	-1.17
PXDN (UniProt Q92626)	-1.65	-1.61	0.0514
LYPLA2 (UniProt O95372)	0.141	0.194	0.209
PPID (UniProt Q08752)	0.244	-0.234	0.368
CPD (UniProt O75976)	-0.796	-0.794	0.546
RNPS1 (UniProt Q15287)	1.23	0.438	0.528
NUMBL (UniProt Q9Y6R0)	0.0444	0.451	-1.68
WEE1 (UniProt P30291)	-0.142	0.206	0.00265
CSDE1 (UniProt O75534)	-0.138	0.281	-0.273
RALY (UniProt Q9UKM9)	0.0855	-0.0305	0.00385
FYN (UniProt P06241)	0.0671	-0.0839	-1.04
SERPINB5 (UniProt P36952)	0.571	0.206	0.0156
NXN (UniProt Q6DKJ4)	0.0765	0.152	0.314

Target	thermal stability z-score [1, 3]	thermal stability z-score ([1]; arsenate co-treatment: none)	thermal stability z-score [2]
PCNT (UniProt O95613)	-0.505	0.496	0.281
FHOD1 (UniProt Q9Y613)	-0.261	-0.0798	0.2
NUP160 (UniProt Q12769)	0.198	0.123	1.01
DLST (UniProt P36957)	0.396	0.38	-5.05
SRSF5 (UniProt Q13243)	0.765	0.508	-1.82
MRPL22 (UniProt Q9NWU5)	0.32	0.464	0.467
SF3B2 (UniProt Q13435)	0.498	0.403	-0.135
PLIN4 (UniProt Q96Q06)	0.188	0.324	0.741
PLPP2 (UniProt O43688)	-0.387	-0.14	-0.114
OXCT1 (UniProt P55809)	-0.159	-0.108	-1.12
TMEM41A (UniProt Q96HV5)	0.652	0.936	0.885
DOHH (UniProt Q9BU89)	-0.0847	0.18	0.721
CRELD2 (UniProt Q6UXH1)	-6.65	-6.33	-0.0409
EDEM3 (UniProt Q9BZQ6)	-3.5	-2.77	0.485
NCKIPSD (UniProt Q9NZQ3)	0.127	0.0916	0.255
SARS (UniProt P49591)	1.63	1.23	2.1
PHB2 (UniProt Q99623)	0.27	0.289	0.108
OLA1 (UniProt Q9NTK5)	0.522	0.49	-0.463
CTTN (UniProt Q14247)	0.536	0.451	0.2
TSFM (UniProt P43897)	-0.91	-0.179	-0.0696
SLFN5 (UniProt Q08AF3)	-0.884	-1.21	-0.568
TNIP1 (UniProt Q15025)	-0.261	-0.828	-0.0487
OMA1 (UniProt Q96E52)	-0.791	-1.46	-0.431
SMC2 (UniProt O95347)	0.528	0.546	0.802

Target	thermal stability z-score [1, 3]	thermal stability z-score ([1]; arsenate co-treatment: none)	thermal stability z-score [2]
RNF181 (UniProt Q9P0P0)	1.27	1.68	0.00117
ATRIP (UniProt Q8WXE1)	0.275	-0.148	-0.137
PARL (UniProt Q9H300)	-0.134	-0.733	0.57
SEC24A (UniProt O95486)	-0.232	-0.0421	0.178
UBE2R2 (UniProt Q712K3)	0.8	0.536	-0.279
BRD3 (UniProt Q15059)	0.0121	-0.107	-0.279
FOLR1 (UniProt P15328)	0.588	0.376	0.366
CCDC85C (UniProt A6NKD9)	0.0231	0.186	-0.0463
COMTD1 (UniProt Q86VU5)	-0.328	-1.94	-0.237
HERC4 (UniProt Q5GLZ8)	0.298	-0.11	0.726
SYNGR2 (UniProt O43760)	0.329	0.548	-0.0246
RAB22A (UniProt Q9UL26)	0.482	0.207	-0.396
DUT (UniProt P33316)	-0.171	0.377	-0.727
GNPDA2 (UniProt Q8TDQ7)	-0.212	-0.181	-0.0337
HMG20A (UniProt Q9NP66)	0.359	-0.371	0.344
YRDC (UniProt Q86U90)	0.45	0.0491	0.341
DDI2 (UniProt Q5TDH0)	-0.174	-0.209	-0.217
HELLS (UniProt Q9NRZ9)	-0.0381	-0.0408	-0.282
HMGCS1 (UniProt Q01581)	1.34	0.0808	0.164
AGTRAP (UniProt Q6RW13)	0.719	0.743	1.66
ATP5L (UniProt O75964)	0.758	-1.18	0.595
TUSC1 (UniProt Q2TAM9)	0.515	0.368	0.0895
GRSF1 (UniProt Q12849)	-0.892	-0.354	0.26
